The values that follow come from patent US9518107B2, “Pharmaceutical compositions containing polypeptides derived from α-1 antitrypsin and methods of use thereof” (YISSUM RESEARCH DEVELOPMENT COMPANY OF THE HEBREW …, priority 2010, dated 2016).

For one experiment, the system named is Female C57B1/6 mice. Briefly: LPS induced sepsis in mice, UBE i.v. It counts as in vivo. The settings on record: i.v. within 1 hour after LPS 1.2 mg/mouse; 48 hours after LPS; 0.1 and 1.0 μg/kg; FIG. 20B. How it is done:
Female C57B1/6 mice 7-8 weeks of age were injected i.p with LPS 1.2 mg/mouse. Thereafter (within 1 hour) UBE peptide as depicted by SEQ ID NO: 2 was injected i.v. (100 μl) at different doses; control group received PBS. Survival of mice was monitored. n=10 for control group, n=9 for each UBE-treated group.

The subject of a further experiment is male MRL/lpr mice. Briefly: Advanced stage of Systemic Lupus Erythematosus in MRL/lpr mice. In kind it is in vivo. The settings on record: 1 μg/kg thrice a week from age of 22 weeks, 22 days; FIG. 10. How it is done: UBE (SEQ ID NO: 2; 1 μg/kg) was administered to male MRL/lpr mice thrice a week, starting at age of 22 weeks. At this age the mice are acutely affected and show a high level of proteinuria. Urine was obtained by spontaneous urination and the animals' urinary protein levels (mg/dl) were evaluated throughout the treatment period (22 days) using a commercial stick.

For another experiment, the system named is Human CD4 cells. The experiment in a line: Cytokine profile in human CD4+ cells activated with anti CD3 and anti CD28 antibodies (Multiplex). It counts as cell-based. Particulars: UBE 100 ng/ml, 72 hours. How it is done:
Human CD4 cells were MACS separated from blood of healthy donors using the immunomagnetic separation system of Miltenyi, in accordance with manufacturer instructions. Cells were incubated (each well contained 0.5×106/0.5 ml) with human IL2 (100 U/ml) and human anti CD3 antibodies (1 ug/ml) and human anti CD28 antibodies (1 ug/ml) with or without UBE (100 ng/ml) for 72 hours in a CO2 (6%) incubator at 37° C. in multiwall plates. Thereafter plates were centrifuged and supernatants were collected and stored at −20° C. until cytokine analysis was conducted. Cytokines were determined by Multiplex system (BioRad). *p<0.02, **p<0.006 using students t-test for comparison between UBE-treated and control cells.

The next experiment concerns Female Balb/C mice. The experiment in a line: Ovalbumin-induced asthma in mice, eosinophils in bronchoalveolar lavage. It counts as in vivo. Particulars: UBE i.n. 50 ng/mouse on days 24 and 27, one hour before OVA; day 29; FIG. 21. The procedure:
20 ul of 5% Ovalbumin (OVA) was added to 8.75 ml of sterile saline, which was then added stepwise to a solution of 1.25 ml of 40 mg/ml ImjectAlum (Pierce), and subjected to rocking at room temperature for 30-60 minutes, to facilitate optimal alum absorption to the Ovalbumin (Alum/Ova). Female Balb/C mice were then injected with 200 ul of Alum/Ova i.p, according to the following protocol:
On Days 0 and 14, mice were injected i.p with OVA/Alum.
On day 24 mice were injected intranasally (i.n.) with. UBE/saline (50 ng/50 μl/mouse, 25 μl to each nostril) and then after one hour, mice were injected i.n with OVA (50 μg/50 μl/mouse, 25 μl to each nostril).
On Day 27, mice were injected i.n. UBE/saline (50 ng/50 μl/mouse, 25 μl to each nostril) and then 1 hour subsequently were again injected i.n. with OVA (50 μg/50 μl/mouse). Mice were then sacrificed on day 29, and bronchoalveolar fluid was obtained by lung lavage (1 ml of 10% FCS-heat inactivated in PBS), and the percent of eosinophils seen in lavage fluid versus white cell count was ascertained by microscopic evaluation of smears.

For another experiment, the system named is Female C57BL/6 mice. Briefly: Experimental autoimmune encephalitis (EAE), MOG 35-55 induced, neurological score. Particulars: thrice a week. In kind it is in vivo. How it is done: Female C57BL/6 mice were injected subcutaneously into 4 sites on the back, adjacent to each of the forelimbs and hindlimbs (total amount 200 μl) with a myelin oligodendritic glycoprotein (MOG) 35-55 fragment emulsified with complete Freund's adjuvant. Thereafter, each animal was i.p. injected with pertusis toxin (PTX; 200 ng/mouse) in PBS and an additional
PTX injection was repeated 2 days later, which is a standard protocol for initiating experimental autoimmune encephalomyelitis (EAE) in mice. UBE polypeptide (SEQ ID NO:2) was intraperitoneally (i.p.) injected (0.3 μg/kg, thrice a week) five days after MOG immunization (day of onset of symptoms). The animals were evaluated for neurological score from 0 (no effect) to 6 (severe neurological symptoms including paralysis). Results are the mean±SE of neurological score (sum of all scores divided by the number of animals in each experimental group) at each of the indicated time intervals after MOG injection.
Female C57BL/6 mice were injected subcutaneously into 4 sites on the back, adjacent to each of the forelimbs and hindlimbs (total amount 200 μl) with a myelin oligodendritic glycoprotein (MOG) 35-55 fragment emulsified with complete Freund's adjuvant. Thereafter, each animal was i.p. injected with pertusis toxin (PTX; 200 ng/mouse) in PBS and an additional PTX injection was repeated 2 days later. Four days after MOG immunization, each mouse received i.p. injections (1 μg/kg, thrice a week) of each of the following polypeptides:
The animals were evaluated for neurological score from 0 (no effect) to 6 (severe neurological symptoms including paralysis). Results are the mean±SE of neurological score (sum of all scores divided by the number of animals in each experimental group) at each of the indicated time intervals after immunization.

In another experiment the test system is T-lymphocytes. The experiment in a line: Lymphocyte proliferation in vitro (viable cell count, trypan blue). In kind it is cell-based, female C57B1/6 mice. The settings on record: 96 hours incubation; FIG. 17. How it is done: T-lymphocytes were harvested from lymph nodes of female C57B1/6 mice by standard methodology and seeded (1.3×10^6 cells/ml) in 96 well plate […]. Thereafter, UBE was added to the culture at the indicated concentrations and incubated for 96 hours (6% CO2, 37° C.). The medium containing the polypeptide was replaced after 48 hours of incubation. Viable cells (trypan blue staining) were counted a light microscope.

Take “SMPPIVRFDHPFLFIIFEEHTQSPLFVGKVVDPTHK (listed as Mus musculus) [UBE, 36-mer peptide corresponding to residues 378-413 of Mus musculus alpha-1-antitrypsin (serpin a1c)]”: in the experiment on Female C57B1/6 mice, the “reduction of LPS-induced mortality” value was determined as 33%. Moreover, the “proteinuria (urinary protein)” value in the experiment with male MRL/lpr mice is recorded as “significant reduction”. Further, the “inflammatory mediators overall (IL6, IL17A, IL21, IL22, IL23, IL31, IFNγ)” value in the experiment on Human CD4 cells (FIG. 22A-G) is on record as “overall trend in reduced inflammatory mediators”. Further, the IL22 production result in the experiment on Human CD4 cells (FIG. 22D) is recorded as “significantly reduced”. Moreover, the IL23 production entry in the experiment on Human CD4 cells (FIG. 22E) was “significantly reduced”. Besides, the IL31 production entry with Human CD4 cells (FIG. 22F) is reported as “significantly reduced”. Further, the “eosinophil concentration in lavage fluid (percent of eosinophils versus white cell count)” value with Female Balb/C mice was “dramatic reduction”. In addition, the “neurological symptoms (neurological score 0 to 6)” value with Female C57BL/6 mice (i.p. 0.3 μg/kg, from five days after MOG immunization, FIG. 2) is given as “reduced the neurological symptoms”; with Female C57BL/6 mice (i.p. 1 μg/kg, from four days after MOG immunization, FIG. 3) it was “reduced the neurological symptoms”. Further, in the experiment on T-lymphocytes, the “concentration of maximal effect on T cell proliferation” value was found to be 1 ng/mL.
